Assays:
human LPL mRNA = assay: Test for increase in LPL mRNA expression (luciferase assay, HTB-92/p387/p383 cell line); format: cell-based; settings: 120 h, HTB-92/p387/p383 cells, 5 days
Text: Pharmacological Test 1 Test for Increase in LPL mRNA Expression
A luciferase assay was employed to simply and quickly detect an increase in human LPL mRNA. The principle of the assay is as follows:
Luciferase emits light when reacted with luciferine (substrate). The expression of LPL mRNA is controlled by 5′-UTR and 3′-UTR (promoter regions) of the LPL gene. By introducing the promoter regions of the LPL gene into a commercially available plasmid (for example, that produced by Clonetics Corp.) to produce a plasmid (reporter plasmid) that stably expresses luciferase in human cells, such a plasmid expresses luciferase only under conditions in which LPL mRNA can increase. Therefore, when the substrate is introduced to the expression system and the amount of luciferase expression (luciferase activity) is quantified as the extent of chemiluminescence, the amount of LPL mRNA expression can be estimated.
The test herein was performed as follows: Using a plasmid for the luciferase assay manufactured by Clontech, wherein human LPL 5′-UTR (Enerback, S., et al., Mol. Cell. Biol. 12 (10) (1992): 4622-4633) and 3′-UTR (Wion, K. L., et al., Science 235 (1987): 4796, 1638-1641) had been inserted, human-derived liposarcoma cell line SW872 (ATCC Accession No. HTB-92) was transformed to prepare an HTB-92/p387/p383 cell line, which stably expresses luciferase.
This HTB-92/p387/p383 cell line was introduced into a 225 cm^2 culture flask furnished with a culture medium and cultured at 37° C. in the absence of CO2 until reaching confluence. Leibovitz's L-15 culture medium (containing 10% FBS, 1% GlutaMaxII, 10 μg/ml streptomycin, 1 μg/ml puromycin, 250 μg/ml hygromycin B) was used as the culture medium. After reaching confluence, the cells were collected, plated on 384-well plates to have 20000 cells/well, and cultured with 50 μl/well of the culture medium under the same conditions as above (37° C., absence of CO2). After 3 days of culturing, the culture medium was replaced by 50 μl/well phenol-red-free DMEM (containing 10% FBS, 1% GlutaMax, 10 U/ml penicillin, 10 μg/ml streptomycin, 1 μg/ml puromycin, 250 μg/ml hygromycin, 1 μM dexamethasone, 0.5 μM IBMX; differentiation medium), and the cells were cultured for 5 more days at 37° C. in the presence of CO2 to differentiate.
Furthermore, the culture medium was replaced by a 50 μl/well medium containing a compound of the invention (compound prepared in an Example) as a test substance wherein the compound had been conditioned with DMSO to a specific concentration selected from 10^−4 M to 3×10^−10M. The cells were cultured for 5 days at 37° C. in the presence of CO2.
After 5 days of culturing, a luciferase substrate solution (manufactured by Promega Corporation) was introduced to each well in an amount of 30 μl/well. The cells were left to stand 10 minutes at room temperature, and luciferase activities were measured by a luminometer (a microplate scintilltion counter; The Wallac MicroBeta Trilux, manufactured by Perkin Elmer, Inc.).
Cells that had been cultured and differentiated in a differentiation medium prepared by adding 0.1% DMSO to the above-mentioned DMEM medium (differentiation medium) not containing phenol red were used as a control (i.e., cultured and differentiated for 5 days and then stimulated for 5 days). The luciferase activity of these control cells were measured as above. The EC50 value (the concentration of test substance that can increase the amount of LPL mRNA expression over the control by 50%, unit: M) was calculated based on the straight line obtained by plotting the results of the tests performed using the test substances at varying concentrations. The maximum induction (Max. Ind. values) was calculated according to the following equation: Max. Ind. Value=Lt/Lc wherein Lt represents the maximum luciferase activity occurred in response to test substance stimulation; and Lc represents the value indicating the luciferase activity of the control.

[1] = Therapeutical effect on olive oil-induced triglyceride hyperlipidemia models; format: in vivo; settings: once a day for one week, SD rats, 2 h after olive oil
Description: Test of Therapeutical Effect on Olive Oil-Induced Triglyceride Hyperlipidemia Models
To conduct this test, 6-week-old SD rats (purchased from Charles River Japan) were used.
According to the body weight of the test rats when they were 5 weeks old, the test rats were divided into test groups and a control group with 6 rats per group.
A predetermined amount of each compound prepared in the Examples was measured and placed in an agate mortar. While 5% aqueous gum arabic solution was gradually introduced to the mortar, the compound was uniformly ground and suspended. Test samples were prepared by further adding 5% aqueous gum arabic solution gradually. Subsequently, these test samples were subjected to ultrasonic washing for 10 minutes to homogenize. Test samples were prepared as and when necessary.
The rats of the test groups were orally administered with the compounds of the invention such that rats received the compounds in an amount of 10, 30, or 100 mg/kg. The compounds of the invention were formulated as 5% gum arabic suspensions as described above.
The rats of the control group were orally administered with 5% aqueous gum arabic solution (not containing the compounds of the invention) in an amount of 5 ml/kg body weight. Administration was conducted once a day continuously for one week at a specific time of day after the rats reached 6 weeks of age. This test was performed under non-fasting conditions (rats had free access to feed and water), and the rats were fasted after the final administration of the compounds or 5% aqueous gum arabic solution.
Two hours after the final administration, olive oil was orally administered to the rats from both groups in an amount of 3 ml/kg body weight.
Two hours after the olive oil administration, blood was collected from the abdominal aorta of the rats of the respective groups using a heparinized syringe. The plasma was centrifugally separated from the blood at a temperature of 4° C., and the triglyceride level of the plasma was measured. A Hitachi 7170 automatic analyzer was used as the measuring instrument. Using the values measured from the test groups and control group, the decrease (%) in plasma triglyceride level was calculated according to the following equation: Decrease (%) in plasma triglyceride concentration=(1−E/C)×100 wherein E represents the average plasma triglyceride level in each test group; and C represents the average plasma triglyceride level in the control group.

[2] = Anti-obesity test using Zucker fatty rats; format: in vivo; settings: 100 mg/kg oral, once a day over 4 weeks, relative to control group
Text: Anti-Obesity Test Using Zucker Fatty Rats
Zucker fatty rats are obese rats discovered by Zucker et al., in 1961 as mutants among 13 M rats, which are a hybrid between 13C and M rats. These rats (fa/fa) start to appear distinctly obese from normal broods around the age of 3 weeks. As they age, the weight difference between the fatty rats and normal rats increases. Zucker fatty rats are currently kept by a variety of organizations as simple obesity models, and are readily obtainable.
This test was performed using this rat model to evaluate the anti-obesity action of the compounds of the invention. The preparation method of test samples and the test procedures are described below:
The test samples were prepared in the same manner as in Test Example 2.
Zucker fatty rats and lean rats (both from Charles River Japan) were purchased at the age of 5 weeks. They were divided into groups (10 rats per group) according to body weight when they reached 6 weeks old. After acclimatization, the administration of test samples was initiated when the rats reached 8 weeks old. Test samples were orally administered using an oral gavage so that the compounds of the invention contained in the test samples were given in an amount of 100 mg/kg body weight (test sample dosage: 5 ml/kg body weight). The test samples were administered once a day over 4 weeks at a specific time of day.
As a control, a group of rats were administered with the same amount of 5% aqueous gum arabic solution (5 ml/kg body weight) instead of the test samples.
The rats of all groups were weighed on the last day of administration. The average body weight of the rats of each test group was compared with the average body weight (standard weight) of the rats of the control group to obtain the weight variations (differences). The weight differences were expressed as percentages in relation to the standard weight. The values thus calculated are referred to as “weight change %”. When a weight difference is negative relative to the standard weight, weight change % is shown with “−” (minus).
During the test period, the rats of the respective groups had free access to rat feed (“CRF-1”, manufactured by Oriental Yeast, Co., Ltd.) and water (tap water).

LPL = assay: Test for LPL activity-increasing effect in normal rats (skeletal muscle LPL activity); format: in vivo; settings: every day for 1 week, SD rats, soleus muscle, 4 h after administration
Description: Test for LPL Activity-Increasing Effect in Normal Rats
6-week-old SD rats (purchased from Charles River Japan) were used as subjects. The rats were divided into groups according to body weight at the age of 5 weeks. The rats in each test group were orally administered with a 5% gum arabic suspension in an amount of 5 ml/kg of body weight, the suspension containing the test compound of the invention in such an amount that the dose of the compound of the invention became 30 mg/kg of body weight in one group and 100 mg/kg of body weight in another group. The rats in a control group were orally administered with a 5% gum arabic suspension (not containing the test compound of the invention) in an amount of 5 ml/kg of body weight. Each sample suspension was orally administered every day at a specific time of day for 1 week starting when the rats reached the age of 6 weeks.
Four hours after the administration of the sample suspension, skeletal muscle tissues of the rats were collected, then freeze-clamped and stored under liquid nitrogen. LPL activity in the skeletal muscle tissues was measured by the following method.
The soleus muscle was homogenized in a chilled solution of 0.05 mol/L NH4OH—NH4Cl buffer (pH 8.5) containing 0.5 U/mL heparin at 1 mL/100 mg of tissue wet weight. After standing on ice for 60 min with vigorous mixing at intervals of 15 min, the homogenate was centrifuged at 3000 rpm and 4° C. for 10 min and the supernatant was separated.
The substrate solution was prepared by mixing 2 μCi of glycerol tri[1-^14C]oleate, 0.133 g of unlabeled triolein, 0.9 mL of 1% Triton X-100, and 0.9 mL of 4% bovine serum albumin. in 0.2 mol/L Tris-HCl buffer (pH 8.6) and 10.2 mL of 0.2 mol/L Tris-HCl buffer (pH 8.6). The mixture was emulsified by sonication on ice for 3 min.
In a glass test tube, 0.1 mL of the tissue extract, 0.05 mL of heat-inactivated rat serum and 0.15 mL of 4% bovine serum albumin in 0.2 mol/L Tris-HCl buffer (pH 7.4) were mixed. Enzyme reaction was started by adding 0.2 mL of the substrate solution and was carried out for 30 min. at 37° C.
The reaction was stopped by addition of 2 mL of 1.5 mol/L H2SO4/2-propanol (1:40, v/v), and 1 mL of distilled water and 3 mL of hexane were added into the test tube. After vigorously shaking for 10 min. at room temperature, the test tube was centrifuged for 10 min. at 3000 rpm.
The upper layer (3.5 mL) was collected in a new test tube and mixed with 1 mL of 0.1 mol/L KOH.
The test tube was vigorously shaken for 10 min. at room temperature and then centrifuged for 10 min. at 3000 rpm.
After removing the upper layer, 1 mL of the lower layer (water phase) was transferred into a vial for counting, neutralized with 50 μL of 1.3 mol/L HCl and mixed with 4 mL of scintillator. The radioactivity was measured using a liquid scintillation counter.
The LPL activity increase (%) was calculated from the measured values of LPL activity in the control group and test groups according to the following formula: LPL activity increase (%)=(Test group average value)/(Control group average value)×100−100

**Q.** With `COc1cc(-c2cn3ccccc3n2)ccc1OCc1ccccc1` [Example 1, 2-(4-benzyloxy-3-methoxyphenyl)imidazo[1,2-a]pyridine] as the compound, how does the maximal fold induction (human LPL mRNA; Max. Ind. Value=Lt/Lc, maximum luciferase activity over control) read?
**A.** The maximal fold induction was 3.

**Q.** What about the EC50 (human LPL mRNA; concentration that increases LPL mRNA expression over the control by 50%) of the same compound?
**A.** The EC50 was 6.3 µM.

**Q.** And the “Decrease in plasma triglyceride level (%)” value (“Decrease … (%)” below) ([1]; 10 mg/kg oral)?
**A.** Its value is 26%.

**Q.** What about the “Decrease … (%)” value ([1]; 30 mg/kg oral) of the same compound?
**A.** Its value is 50%.

**Q.** And the “Decrease … (%)” value ([1]; 100 mg/kg oral)?
**A.** The value was 76%.

**Q.** And the melting point?
**A.** The melting point was 128 to 129.5 °C.

**Q.** What about the “Weight Change (%)” value [2] of the same compound?
**A.** Its value is −8%.

**Q.** For `COc1cc(-c2c[nH]c(-c3ccc(C(F)(F)F)cc3)n2)ccc1OCc1ccccc1.Cl` [Example 95, 4-(4-benzyloxy-3-methoxyphenyl)-2-(4-trifluoromethylphenyl)imidazole], which “Decrease … (%)” value ([1]; 10 mg/kg oral) is on record?
**A.** The value was 28%.

**Q.** And the “Decrease … (%)” value ([1]; 30 mg/kg oral)?
**A.** The value was 65%.

**Q.** And the “Decrease … (%)” value ([1]; 100 mg/kg oral)?
**A.** The value was 81%.

**Q.** And the “Increase of skeletal muscle LPL activity compared to control (%)” value (LPL; 30 mg/kg oral)?
**A.** The value was 13%.

**Q.** What about the “Increase of skeletal muscle LPL activity compared to control (%)” value (LPL; 100 mg/kg oral) of the same compound?
**A.** The value was 25%.

**Q.** And the melting point?
**A.** Its melting point is 247 to 249 °C.

**Q.** What about the “Weight Change (%)” value [2] of the same compound?
**A.** Its value is −15%.
